Among the test systems are Staphylococcus aureus; Escherichia coli JM109; Pseudomonas aeruginosa; Acinetobacter baumannii.
Holding throughout (assay): ≥ marks a high value that may be exact or a test limit, other limits are often not marked, values filed in µg/mL are converted to µM
Assay [1] relates to Staphylococcus aureus ATCC 6538P.
Assay [2] concerns Staphylococcus aureus ATCC 33591.
Assay [3] relates to Escherichia coli ATCC 25922.
Assay [4] relates to Pseudomonas aeruginosa ATCC 27853.
Assay [5] has as its system Staphylococcus aureus ATCC 29213.
For assay [6], the system named is Staphylococcus aureus ATCC 700699.
The subject of assay [7] is Klebsiella pneumoniae ATCC 700603.
Assay [8] deals with Staphylococcus epidermidis RP62A/1.
For assay [9], the system named is Stenotrophomonas maltophilia.
Assay [10] deals with Proteus mirabilis ATCC 25933.
Assay [11] concerns Escherichia coli ATCC 25726.
The subject of assay [12] is Staphylococcus epidermidis RP62A.
The test system of assay [13] is Staphylococcus aureus ATCC 25923.
Assay [14] has as its system Candida albicans ATCC 90028.
Assay [15] relates to Escherichia coli IFO 12734.
Assay [16] deals with Bacillus subtilis IFO 3513.
The test system of assay [17] is Staphylococcus aureus IFO 12732.
Assay [18] relates to Bacillus cereus ATCC 14579.
In assay [19] the test system is Staphylococcus aureus ATCC 6538.
Assay [20] concerns Salmonella enterica subsp. enterica serovar Typhimurium ATCC 14028.
The test system of assay [21] is Streptococcus mutans ATCC 25175.
In assay [22] the test system is Escherichia coli ATCC 35218.
Assay [23] concerns Candida albicans ATCC 64550.
The test system of assay [24] is Micrococcus luteus ATCC 9341.

Each structure is given as a SMILES string. ≈ marks a conversion by molar mass, not a printed value.

This passage reports MIC results from DBAASP.

Turning to `CC[C@H](C)[C@H](NC(=O)[C@H](C)NC(=O)[C@H](CC(C)C)NC(=O)[C@H](CCCN=C(N)N)NC(=O)[C@H](CC(C)C)NC(=O)[C@H](C)N)C(=O)N[C@@H](CCCN=C(N)N)C(=O)N[C@@H](CCCN=C(N)N)C(=O)N[C@@H](CCCN=C(N)N)C(N)=O` [ALRLAIRRR], the MIC in assay [1] is 1.78 µM (≈ 2 µg/mL); against Staphylococcus aureus, over 42.7 µM; in the assay with Escherichia coli JM109, 1.33 µM (≈ 1.5 µg/mL); in the assay on Pseudomonas aeruginosa, 2.67 µM (≈ 3 µg/mL).

In the case of `CC[C@H](C)[C@H](NC(=O)[C@H](CC(=O)O)NC(=O)[C@H](CCCCN)NC(=O)[C@H](C)NC(=O)[C@H](C)NC(=O)CNC(=O)[C@H](CCCCN)NC(=O)[C@H](CC(C)C)NC(=O)[C@@H](NC(=O)[C@H](CC(=O)O)NC(=O)[C@@H](NC(=O)[C@@H](NC(=O)CN)C(C)C)C(C)C)[C@@H](C)CC)C(=O)N[C@@H](C)C(=O)N[C@@H](C)C(=O)N[C@@H](Cc1cnc[nH]1)C(=O)N[C@@H](CC(C)C)C(=O)N[C@@H](C)C(=O)N[C@@H](CO)C(=O)N[C@@H](CCCCN)C(=O)N[C@H](C(=O)N[C@@H](CCSC)C(=O)N[C@@H](CC(N)=O)C(=O)N[C@@H](CCCCN)C(=O)N[C@@H](CC(C)C)C(N)=O)C(C)C` [GVVDILKGAAKDIAAHLASKVMNKL], the MIC in assay [2] is at least 100 µM; in assay [3], 12.5 µM (≈ 32 µg/mL); in [4] it was 100 µM (≈ 256 µg/mL); in assay [5], over 100 µM; in assay [6] it was at least 100 µM; in assay [7], 50 µM (≈ 128 µg/mL).

With `CC[C@H](C)[C@H](NC(=O)[C@H](CC(=O)O)NC(=O)[C@H](CCCCN)NC(=O)[C@H](C)NC(=O)[C@H](C)NC(=O)CNC(=O)[C@H](CCCCN)NC(=O)[C@H](CC(C)C)NC(=O)[C@@H](NC(=O)[C@H](CC(=O)O)NC(=O)[C@@H](NC(=O)[C@@H](NC(=O)CN)C(C)C)C(C)C)[C@@H](C)CC)C(=O)N[C@@H](C)C(=O)NCC(=O)N[C@@H](Cc1cnc[nH]1)C(=O)N[C@@H](CC(C)C)C(=O)N[C@@H](C)C(=O)N[C@@H](CO)C(=O)N[C@@H](CCCCN)C(=O)N[C@H](C(=O)N[C@@H](C)C(=O)N[C@@H](CC(N)=O)C(=O)N[C@@H](CCCCN)C(=O)N[C@@H](CC(C)C)C(N)=O)C(C)C` [GVVDILKGAAKDIAGHLASKVANKL], the MIC in assay [2] was at least 100 µM; in assay [3], over 100 µM; in assay [4], over 100 µM; in assay [5], over 100 µM; in assay [6], at least 100 µM; in assay [7] it was over 100 µM.

Turning to `CC[C@H](C)[C@H](N)C(=O)N[C@@H](CCCCN)C(=O)N[C@@H](CC(C)C)C(=O)N[C@@H](CO)C(=O)N[C@@H](CCCCN)C(=O)N[C@@H](CCC(=O)O)C(=O)N[C@H](C(=O)N[C@@H](CCCCN)C(=O)N[C@@H](CCCCN)C(=O)N[C@@H](CC(N)=O)C(=O)N[C@@H](CC(C)C)C(=O)N[C@@H](CCCCN)C(=O)N[C@@H](CCCCN)C(=O)N[C@H](C(=O)N[C@@H](CC(C)C)C(=O)N[C@@H](CCCCN)C(=O)NCC(=O)N[C@@H](C)C(=O)N[C@H](C(=O)N[C@@H](CCCCN)C(=O)NCC(=O)N[C@@H](C)C(=O)N[C@H](C(=O)N[C@@H](C)C(=O)N[C@H](C(=O)N[C@@H](C)C(=O)N[C@@H](CCCCN)C(=O)N[C@@H](CCSC)C(=O)N[C@H](C(N)=O)C(C)C)C(C)C)[C@@H](C)CC)[C@@H](C)CC)C(C)C)[C@@H](C)O` [IKLSKETKKNLKKVLKGAIKGAIAVAKMV], the MIC is 1.6 µM (≈ 4.97 µg/mL) in assay [8]; 3.1 µM (≈ 9.63 µg/mL) in [9]; 3.1 µM (≈ 9.63 µg/mL) against Acinetobacter baumannii; 12.5 µM (≈ 38.8 µg/mL) in [4]; at least 100 µM in assay [10]; 6.25 µM (≈ 19.4 µg/mL) in [5]. Moreover, the MIC in [11] is 6.25 µM (≈ 19.4 µg/mL); in [12], 1.6 µM (≈ 4.97 µg/mL); in [13], 3.1 µM (≈ 9.63 µg/mL); in assay [14], at least 50 µM; in assay [7], 6.25 µM (≈ 19.4 µg/mL).

With `CC[C@H](C)[C@H](N)C(=O)N[C@@H](CC(C)C)C(=O)N1CCC[C@H]1C(=O)N[C@@H](CC(C)C)C(=O)N[C@@H](CCCCN)C(=O)N[C@@H](Cc1c[nH]c2ccccc12)C(=O)N1CCC[C@H]1C(=O)N[C@@H](Cc1c[nH]c2ccccc12)C(=O)N[C@@H](Cc1c[nH]c2ccccc12)C(=O)N1CCC[C@H]1C(=O)N[C@@H](Cc1c[nH]c2ccccc12)C(=O)N[C@@H](CCCN=C(N)N)C(=O)N[C@@H](CCCN=C(N)N)C(N)=O` [ILPLKWPWWPWRR], the MIC is 13.6 µM (≈ 25 µg/mL) in [15], 1.71 µM (≈ 3.13 µg/mL) in assay [16] and 1.71 µM (≈ 3.13 µg/mL) in assay [17].

As for `CC[C@H](C)[C@H](N)C(=O)N[C@@H](CC(C)C)C(=O)N1CCC[C@H]1C(=O)N[C@@H](Cc1c[nH]c2ccccc12)C(=O)N[C@@H](CCCCN)C(=O)N[C@@H](Cc1c[nH]c2ccccc12)C(=O)N1CCC[C@H]1C(=O)N[C@@H](Cc1c[nH]c2ccccc12)C(=O)N[C@@H](CC(C)C)C(=O)N1CCC[C@H]1C(=O)N[C@@H](Cc1ccc(O)cc1)C(=O)N[C@@H](CCCN=C(N)N)C(=O)N[C@@H](CCCN=C(N)N)C(N)=O` [ILPWKWPWLPYRR], the figures for the MIC in assay [15], in assay [16] and in [17] were 27.6 µM (≈ 50 µg/mL), 1.73 µM (≈ 3.13 µg/mL) and 3.45 µM (≈ 6.25 µg/mL), respectively.

Consider `CC[C@H](C)[C@H](N)C(=O)N[C@@H](CC(N)=O)C(=O)N[C@@H](CC(C)C)C(=O)N[C@@H](CCCCN)C(=O)N[C@@H](C)C(=O)N[C@H](C(=O)N[C@@H](C)C(=O)N[C@@H](C)C(=O)N[C@@H](CC(C)C)C(=O)N[C@H](C(=O)N[C@@H](CCCCN)C(=O)N[C@@H](CCCCN)C(=O)N[C@H](C(=O)O)C(C)C)C(C)C)[C@@H](C)CC` [INLKAIAALVKKV], for which the minimal inhibitory concentration (MIC) in assay [18] was at least 41.5 µM; in assay [19] it was 43.2 µM (≈ 59.7 µg/mL); in assay [7] it was 13.3 µM (≈ 18.4 µg/mL); in [20], 12.2 µM (≈ 16.8 µg/mL); in [21] it was 23.6 µM (≈ 32.6 µg/mL); in assay [22], 8.52 µM (≈ 11.8 µg/mL).

Consider `CC[C@H](C)[C@H](NC(=O)[C@H](C)NC(=O)[C@H](CC(C)C)NC(=O)[C@H](CS)NC(=O)[C@H](CC(C)C)NC(=O)[C@H](C)NC(=O)[C@H](C)NC(=O)[C@H](CS)NC(=O)[C@@H](N)CC(C)C)C(=O)NCC(=O)N[C@@H](CCCN=C(N)N)C(=O)N[C@@H](CCCN=C(N)N)C(N)=O` [LCAALCLAIGRR], for which the MIC worked out at 4.76 µM (≈ 6 µg/mL) in assay [1], 38.1 µM (≈ 48 µg/mL) against Staphylococcus aureus and 19.1 µM (≈ 24 µg/mL) in the assay on Escherichia coli JM109.

For `NCCCC[C@H](NC(=O)[C@H](CCCCN)NC(=O)[C@H](CCCN=C(N)N)NC(=O)[C@H](CCCN=C(N)N)NC(=O)[C@H](Cc1ccc(O)cc1)NC(=O)[C@H](Cc1ccc(O)cc1)NC(=O)[C@H](CCCCN)NC(=O)[C@H](CCCN=C(N)N)NC(=O)CNC(=O)[C@@H](N)CCCN=C(N)N)C(=O)O` [RGRKYYRRKK], the MIC in assay [23] was at least 100 µM.

For the compound `CC[C@H](C)[C@H](NC(=O)[C@H](CC(C)C)NC(=O)[C@@H]1CCCN1C(=O)[C@H](Cc1c[nH]c2ccccc12)NC(=O)[C@H](CCCCN)NC(=O)[C@H](Cc1c[nH]c2ccccc12)NC(=O)[C@@H]1CCCN1C(=O)[C@H](Cc1c[nH]c2ccccc12)NC(=O)[C@H](Cc1c[nH]c2ccccc12)NC(=O)[C@@H]1CCCN1C(=O)[C@H](Cc1c[nH]c2ccccc12)NC(=O)[C@H](CCCN=C(N)N)NC(=O)[C@@H](N)CCCN=C(N)N)C(N)=O` [RRWPWWPWKWPLI], the MIC came out at 0.4 µM (≈ 0.763 µg/mL) in [24], 6.55 µM (≈ 12.5 µg/mL) in [15], 0.818 µM (≈ 1.56 µg/mL) in assay [16] and 0.818 µM (≈ 1.56 µg/mL) in assay [17].
